In the test the test system is MTT (mouse pheochromocytoma). As to the kind of experiment: IC50 of cell viability (ATP content). The note with it: (24 or 48 h). In a few lines:
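MTT mouse pheochromocytoma cells (5 µl of 200,000 cells/ml per well, white 1536-well plates, DMEM with 5% FBS and 1% horse serum) were cultured overnight at 37°C, 5% CO2. They then received 23 nl library compound in DMSO by pintool at 8 concentrations (final 0.5 nM to 46 µM) for 24 or 48 hrs. CellTiter-Glo ATP luminescence was read after 15 minutes. Signals were normalised to positive-control (100% inhibition) and DMSO (0%) wells, and IC50 came from a four-parameter logistic fit.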

Counter-ions that a name gives are not always drawn.

In the case of `CCC(=O)OC1(c2ccccc2)CCN(C)CC1C` (stereo not drawn) [BETAPRODINUM], the “IC50 of cell viability” value was > 46 µM.

`CC(C)NCC(O)COc1ccc(CCOCC2CC2)cc1` (stereo not drawn) [BETAXOLOL]: the “IC50 of cell viability” value is > 46 µM.

As to `C[N+]1(C)CCCCC1COC(=O)C(O)(c1ccccc1)c1ccccc1` (stereo not drawn) [BEVONIUM METHYLSULFATE], the “IC50 of cell viability” value was > 46 µM.

`C=C(c1ccc(C(=O)O)cc1)c1cc2c(cc1C)C(C)(C)CCC2(C)C` [BEXAROTENE]: the “IC50 of cell viability” value was > 46 µM.

On to `CN1CCC(Nc2ncc3ncnc(Nc4ccc(F)c(Cl)c4)c3n2)CC1` [BIBX 1382 dihydrochloride], for which the “IC50 of cell viability” value was > 46 µM.

In the case of `c1ccc(-c2ccc(C(c3ccccc3)n3ccnc3)cc2)cc1` (stereo not drawn) [BIFONAZOLE], the “IC50 of cell viability” value is > 46 µM.

Consider `O=C(O)Cc1cccc(-c2cc(CCCCCCc3ccc(O[C@H]4O[C@H](CO)[C@@H](O)[C@H](O)[C@@H]4O)c(-c4cccc(CC(=O)O)c4)c3)ccc2O[C@H]2O[C@H](CO)[C@@H](O)[C@H](O)[C@@H]2O)c1` [BIMOSIAMOSE DISODIUM], for which the “IC50 of cell viability” value is > 46 µM.

With `CC(C)=CC1C(C(=O)OCc2coc(Cc3ccccc3)c2)C1(C)C` (stereo not drawn) [BIORESMETHRINUM], the “IC50 of cell viability” value is > 46 µM.

In the case of `CC(C)=CCC[C@](C)(O)C1CC\C(=C/C1)C` (stereo partly drawn) [BISABOLOL], the “IC50 of cell viability” value was > 46 µM.

On to `[O]=[Bi][O][Bi]=[O]` [BISMUTH OXIDE], for which the “IC50 of cell viability” value is > 46 µM.

For the compound `CC(C)(C)CC(C)(C)c1cc(Cc2cc(C(C)(C)CC(C)(C)C)cc(-n3nc4ccccc4n3)c2O)c(O)c(-n2nc3ccccc3n2)c1` [BISOCTRIZOLE], the “IC50 of cell viability” value is > 46 µM.

Take `CCN1CCN(c2cc(-c3ccc(F)cc3)c3c(n2)CCCCCC3)CC1` [BLONANSERIN]: the “IC50 of cell viability” value was > 46 µM.

`O=C1Oc2ccccc2C(=O)C1C(CC(O)c1ccc(-c2ccc(Br)cc2)cc1)c1ccccc1` (stereo not drawn) [BOLDO]: the “IC50 of cell viability” value was > 46 µM.

Turning to `Cc1cc2c(OCC(CNC(C)(C)C)OC(=O)c3ccccc3)cccc2[nH]1` (stereo not drawn) [BOPINDOLOL], the “IC50 of cell viability” value is > 46 µM.

As for `CC1(C)C2CC[C@]1(C)[C@@H](O)C2` [BORNEOL], the “IC50 of cell viability” value was > 46 µM.

For the compound `CC(=O)OC1CC2CCC1(C)C2(C)C` (stereo not drawn) [BORNYL ACETATE], the “IC50 of cell viability” value was > 46 µM.

Regarding `COc1ccccc1Oc1c(N[S+](=O)([O-])c2ccc(C(C)(C)C)cc2)nc(-c2ncccn2)nc1OCCO` [BOSENTAN], the “IC50 of cell viability” value was > 46 µM.

Consider `Nc1c(CC(=O)[O-])cccc1C(=O)c1ccc(Br)cc1` [BROMFENAC SODIUM], for which the “IC50 of cell viability” value is > 46 µM.

Turning to `CN(Cc1cc(Br)cc(Br)c1N)C1CCCCC1.Cl` [BROMHEXINE HYDROCHLORIDE], the “IC50 of cell viability” value was > 46 µM.

Regarding `CCN(CC)CCNC(=O)c1cc(Br)c(N)cc1OC` [BROMOPRIDE], the “IC50 of cell viability” value is > 46 µM.

As to `Nc1nc(O)c(Br)c(-c2ccccc2)n1` [BROPIRIMINE], the “IC50 of cell viability” value is > 46 µM.

In the case of `COC1=CC2=C(C=C1OC)[C@@]34CCN5CC/6=C/COC7CC(=O)N2C3[C@H]7[C@@H]6C[C@H]45` (stereo partly drawn) [BRUCINE], the “IC50 of cell viability” value was > 46 µM.

As for `CCC/C=C/C=C/C(=O)OC1/C(=C/C(=O)OC)CC2CC(C(C)O)OC(=O)CC(O)CC3CC(OC(C)=O)C(C)(C)C(O)(CC4C/C(=C/C(=O)OC)CC(C=CC(C)(C)C1(O)O2)O4)O3` (stereo not drawn) [BRYOSTATIN-1], the “IC50 of cell viability” value was > 46 µM.

For the origin of these results see the supplement of paper PMC3974653.
